# Data taken from patent publication USRE48267E1, “Variants of C-type natriuretic peptide” (priority 2009, dated 2020).
# Where a SMILES comes first, the peptide text is derived from it. Bridges are numbered along the chain shown (N, C = ends). The star is where a group is joined. MeO(CH2CH2O)23CH2CH2CO = COCCOCCOCCOCCOCCOCCOCCOCCOCCOCCOCCOCCOCCOCCOCCOCCOCCOCCOCCOCCOCCOCCOCCOCCC(=O)*
# Tests used:
# [1] = test system: FGFR3^ach mouse femurs and tibias; experiment: mouse organ culture model of endochondral bone growth, FGFR3^ach bones
# Procedure: To determine the efficacy of CNP variants in stimulating longitudinal bone growth, CNP variants were tested in a mouse organ culture model of endochondral bone growth in wild-type mice and transgenic mice having a G380R mutation in the human FGFR-3 gene (FGFR3^wt/Ach heterozygote) which represent a mouse model of mild achondroplasia. In brief, the pharmacological activity of wild-type CNP22 and CNP variants was compared in an organ culture model of embryonic or neonatal mouse tibiae, isolated from wild-type and FGFR3^wt/Ach littermates. Overall bone growth and histological changes within the growth plate were assessed. Conditioned culture medium is also assessed for biomarkers of intracellular signaling (cGMP), cartilage metabolism (type II collagen, other collagens, aggrecan chondroitin sulfate), bone metabolism (bone alkaline phosphatase, osteocalcin, type I collagen [C-telopeptide, N-telopeptide]), and inflammation (interleukin-1, interleukin 6, interleukin-11).
# The efficacy of wtCNP22, CNP37 and PEO24-[…]22(K4R) (SEQ ID NO: 36) in stimulating longitudinal femoral growth was evaluated in the mouse organ culture model. For these experiments femora were isolated from 2-3 day old wild-type mice and cultured in alphaMEM supplemented with 0.2% BSA, 0.5 mM L-glutamine, 40 units penicillin/mL and 40 ug streptomycin/mL, for 8 days in the presence of vehicle, CNP22 or CNP variants. The treatment commenced at day 0 and was repeated every two days thereafter, as the medium was changed. Bones were measured prior to treatment and every two days thereafter, using a dissection microscope fitted with a 1 cm eye-piece reticule. Conditioned medium was used for biomarker analysis. At day 8 bones were fixed in 4% paraformaldehyde for 24 hr, decalcified in 5% formic acid for 24 hrs, dehydrated and embedded in paraffin. Bones were sectioned at 5 um (microns), which were then deparaffinized, rehydrated, and stained with Alcian Blue for 30 min (pH 2.5; MasterTech). Alcian Blue stains cartilage blue. Stained sections were visualized and photographed by brightfield microscopy. The thickness of the hypertrophic region of the growth plate cartilage was determined by image analysis.
# Furthermore, ex vivo distribution of CNP37 in the growth plate of FGFR3^ach mouse tibia was evaluated. Bone samples were prepared as described above. Paraffin sections were cut and heat fixed for 1 hour at 60° C. Antigen retrieval with 1% hyaluronidase at 37° C. (30 minutes) was followed by a 1 hour serum block (10% Normal Goat Serum). […]
# In addition to the distribution of CNP variants in the bone growth plate, the ex vivo effects of CNP37, CNP22 and vehicle on cells in the FGFR3^ach and wild-type growth plate, e.g., hypertrophic cell size and cellularity of proliferating zone, were also evaluated. […]
# FGFR3^ach mice = experiment: bone growth biomarkers in FGFR3^ach mice; assay type: in vivo, mouse; conditions: 200 nmol/kg s.c. daily, Day 36
# Procedure: Plasma and serum were collected during the study. Harvested plasma was stored with 10× protease inhibitor at −80° C. until analysis. cGMP levels were measured 15 minutes post-injection on Day 36 from K2-ETDA plasma collection tubes. Fragments of cleaved collagen type II (cartilage-associated biomarkers), osteocalcin (bone-associated biomarker), and IgG (relating to immunogenicity) were measured from terminal bleed serum at the end of the study (Day 37). cGMP was measured using a commercially available ELISA kit (Cayman Chemical Co., Cat. No. 581021.1), cleaved collagen type II (Cartilaps) was measured using a commercially available kit from Immunodiagnostic Systems (Cat. No. 3CAL4000), and osteocalcin was measured using a commercially available kit from Biomedical Technologies Inc. (Stoughton, Mass.).
compound,measurement,setting,value
CC[C@H](C)[C@@H]1NC(=O)[C@H](CCCNC(=N)N)NC(=O)[C@H](CC(=O)O)NC(=O)[C@H](CC(C)C)NC(=O)[C@H](CCCCN)NC(=O)[C@H](CC(C)C)NC(=O)CNC(=O)[C@H](Cc2ccccc2)NC(=O)[C@@H](NC(=O)CNC(=O)[C@H](CCCNC(=N)N)NC(=O)[C@H](CO)NC(=O)[C@H](CC(C)C)NC(=O)CNC(=O)[C@H](CCCNC(=N)N)NC(=O)[C@H](CCCNC(=N)N)NC(=O)[C@H](CC(N)=O)NC(=O)[C@H](C)NC(=O)CNC(=O)CCOCCOCCOCCOCCOCCOCCOCCOCCOCCOCCOCCOCCOCCOCCOCCOCCOCCOCCOCCOCCOCCOCCOCCOC)CSSC[C@@H](C(=O)O)NC(=O)CNC(=O)[C@H](CC(C)C)NC(=O)CNC(=O)[C@H](CO)NC(=O)[C@H](CCSC)NC(=O)[C@H](CO)NC(=O)CNC1=O [PEO24-GANRR-CNP22(K4R)] ({MeO(CH2CH2O)23CH2CH2CO}-GANRRGLSRGCFGLKLDRIGSMSGLGC-OH; disulfide 11-27),levels of cleaved collagen type II in conditioned media,[1]; FGFR3^ach mouse femurs,significantly increased (p<0.05)
same,cGMP levels in conditioned media,"[1]; ex-planted FGFR3^ach mouse femurs and tibias, day 8",large increase (p<0.01)
same,longitudinal growth of FGFR3^ach mouse femur ex vivo,[1]; treated every two days,increased the longitudinal growth of FGFR3^ach mouse femur compared to vehicle
same,longitudinal growth of FGFR3^ach mouse tibia ex vivo,[1]; treated every two days,increased the longitudinal growth of the tibia compared to vehicle or CNP22
same,"cGMP plasma levels 15 minutes post-injection, compared to vehicle",FGFR3^ach mice,increase
